The supplement of paper PMC10307832

Legend:
Assay in all cases: relative viability (nuclei count vs DMSO), 5 days (fraction); higher = more cells survive
GSK-J4 + AZD7762 = compound: CCOC(=O)CCNc1cc(N2CCc3ccccc3CC2)nc(-c2ccccn2)n1 [GSK-J4] + NC(=O)Nc1cc(-c2cccc(F)c2)sc1C(=O)N[C@H]1CCCNC1 [AZD7762] (partner 0.2 µM)
Method in brief: (§1)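 Each reported value is a median over duplicate plates. It expresses relative viability: treated-well nuclei count divided by vehicle-well nuclei count. Lung cancer cell lines in 1536-well plates were dosed by pin tool a day after seeding, alone with one drug or with a fixed anchor-drug dose plus five library-drug doses (not always all listed) in √10 steps, and nuclei were counted after 5 days.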

AZ3146 + Phenformin = compound: CN1CCC(CC1)OC2=CC(=C(C=C2)NC3=NC=C4C(=N3)N(C(=O)N4C)C5CCCC5)OC [AZ3146] + N=C(N)NC(=N)NCCc1ccccc1 [Phenformin] (partner 250 µM)
Method in brief: as §1

GSK-J4 + Tozasertib = compound: CCOC(=O)CCNc1cc(N2CCc3ccccc3CC2)nc(-c2ccccn2)n1 [GSK-J4] + Cc1cc(Nc2cc(N3CCN(C)CC3)nc(Sc3ccc(NC(=O)C4CC4)cc3)n2)n[nH]1 [Tozasertib] (partner 0.1 µM)
Method in brief: as §1

GSK-J4 + Pemetrexed = compound: CCOC(=O)CCNc1cc(N2CCc3ccccc3CC2)nc(-c2ccccn2)n1 [GSK-J4] + Nc1nc2[nH]cc(CCc3ccc(C(=O)N[C@@H](CCC(=O)O)C(=O)O)cc3)c2c(=O)[nH]1 [Pemetrexed] (partner 0.2 µM)
Method in brief: as §1

Cell Line | relative viability (GSK-J4 + AZD7762; first compound 0.5 µM) | relative viability (GSK-J4 + AZD7762; first compound 1.581 µM) | relative viability (GSK-J4 + AZD7762; first compound 5 µM) | relative viability (GSK-J4 + AZD7762; first compound 15.81 µM) | relative viability (GSK-J4 + AZD7762; first compound 50 µM) | relative viability (AZ3146 + Phenformin; first compound 0.08 µM) | relative viability (AZ3146 + Phenformin; first compound 0.253 µM) | relative viability (AZ3146 + Phenformin; first compound 0.8 µM) | relative viability (AZ3146 + Phenformin; first compound 2.53 µM) | relative viability (AZ3146 + Phenformin; first compound 8 µM) | relative viability (GSK-J4 + Tozasertib; first compound 0.5 µM) | relative viability (GSK-J4 + Tozasertib; first compound 1.581 µM) | relative viability (GSK-J4 + Tozasertib; first compound 5 µM) | relative viability (GSK-J4 + Tozasertib; first compound 15.81 µM) | relative viability (GSK-J4 + Tozasertib; first compound 50 µM) | relative viability (GSK-J4 + Pemetrexed; first compound 0.5 µM) | relative viability (GSK-J4 + Pemetrexed; first compound 1.581 µM) | relative viability (GSK-J4 + Pemetrexed; first compound 5 µM) | relative viability (GSK-J4 + Pemetrexed; first compound 15.81 µM) | relative viability (GSK-J4 + Pemetrexed; first compound 50 µM)
NCI-H1666 | 0.889 | 0.807 | 0.688 | 0.768 | 0.573 | 0.592 | 0.574 | 0.53 | 0.608 | 0.528 | 0.606 | 0.499 | 0.635 | 0.534 | 0.502 | 0.864 | 0.665 | 0.765 | 0.882 | 0.791
NCI-H1734 | 0.513 | 0.767 | 0.333 | 0.513 | 0.423 | 0.393 | 0.373 | 0.406 | 0.426 | 0.376 | 0.266 | 0.251 | 0.26 | 0.246 | 0.259 | 0.424 | 0.412 | 0.391 | 0.407 | 0.364
NCI-H1755 | 0.42 | 0.622 | 0.294 | 0.4 | 0.387 | 0.548 | 0.577 | 0.57 | 0.601 | 0.569 | 0.585 | 0.582 | 0.553 | 0.531 | 0.581 | 0.4 | 0.349 | 0.398 | 0.388 | 0.365
NCI-H1793 | 0.595 | 0.324 | 0.215 | 0.151 | 0.156 | 0.473 | 0.286 | 0.339 | 0.35 | 0.213 | 0.331 | 0.315 | 0.305 | 0.266 | 0.286 | 1.01 | 0.6 | 0.684 | 0.235 | 0.167
NCI-H1915 | 0.614 | 0.728 |  | 0.592 | 0.722 | 0.285 | 0.375 | 0.381 | 0.365 | 0.343 | 0.404 | 0.395 |  | 0.409 | 0.337 | 0.41 | 0.518 |  | 0.473 | 0.446
NCI-H1944 | 0.492 | 0.64 |  | 0.414 | 0.427 | 0.168 | 0.18 | 0.188 | 0.19 | 0.207 | 0.257 | 0.238 | 0.248 | 0.243 | 0.255 | 0.553 | 0.565 |  | 0.48 | 0.586
NCI-H1975 | 0.783 | 0.633 |  | 0.63 | 0.858 | 0.406 | 0.387 | 0.386 | 0.401 | 0.301 | 0.721 | 0.716 | 0.539 | 0.659 | 0.798 | 0.249 | 0.285 | 0.212 | 0.331 | 0.276
NCI-H1993 | 0.805 | 0.683 | 1.04 | 0.604 | 0.435 | 0.513 | 0.509 | 0.499 | 0.557 | 0.45 | 0.51 | 0.562 | 0.646 | 0.503 | 0.497 | 0.699 | 0.585 | 0.575 | 0.562 | 0.476
NCI-H2085 | 0.926 | 0.896 | 0.888 | 0.792 | 0.936 | 0.659 | 0.67 | 0.67 | 0.757 | 0.477 | 0.765 | 0.733 | 0.756 | 0.806 | 0.652 | 0.899 | 0.789 | 0.699 | 0.883 | 0.961
NCI-H2087 | 1.09 | 1.25 | 1.05 | 1.23 | 0.8 | 0.382 | 0.54 | 0.406 | 0.46 | 0.471 | 0.265 |  | 0.281 | 0.217 | 0.251 | 0.622 | 0.667 | 0.635 | 0.621 | 0.742
NCI-H2126 | 1 | 0.928 | 1.05 | 0.891 | 0.89 | 0.459 | 0.508 | 0.52 | 0.538 | 0.452 | 0.793 | 0.676 | 0.794 | 0.839 | 0.733 | 0.716 | 0.593 | 0.733 | 0.621 | 0.555
NCI-H2170 | 0.776 | 0.839 | 0.774 | 0.667 | 0.836 | 0.352 | 0.434 | 0.338 | 0.364 | 0.357 | 0.599 | 0.544 | 0.692 | 0.759 | 0.512 | 0.237 | 0.292 | 0.243 | 0.252 | 0.273
NCI-H2342 | 0.624 | 0.525 | 0.531 | 0.557 | 0.362 | 0.568 | 0.565 | 0.615 | 0.512 | 0.51 | 0.427 | 0.664 | 0.482 | 0.557 | 0.529 | 0.737 | 0.79 | 0.762 | 0.84 | 0.824
NCI-H2347 | 0.779 | 0.783 | 0.781 | 0.724 | 0.591 | 0.296 | 0.357 | 0.461 | 0.598 | 0.42 | 0.573 | 0.452 | 0.534 |  | 0.476 | 0.417 | 0.411 | 0.378 | 0.394 | 0.442
NCI-H2405 | 0.774 | 0.954 |  | 0.677 | 0.738 | 0.4 | 0.309 | 0.304 | 0.373 | 0.366 | 0.743 | 0.703 |  | 0.719 | 0.671 | 1.01 | 1 |  | 1 | 1.02
NCI-H3122 | 1.01 | 0.917 | 0.916 | 0.93 | 1 | 0.367 | 0.391 | 0.327 | 0.339 | 0.305 | 0.516 |  | 0.371 | 0.275 | 0.442 | 0.205 | 0.201 | 0.201 | 0.206 | 0.19
PC-3 [JPC-3] | 1.04 | 0.55 | 0.932 | 0.748 | 0.555 | 0.465 | 0.476 | 0.517 | 0.521 | 0.461 | 0.838 | 0.824 | 0.883 | 0.815 | 0.702 | 1.14 | 0.848 | 1.03 | 0.938 | 0.944
